What was measured:
Panc-1 cells = assay: Cell viability assay (MTT) in Panc-1 cells; assay type: cell-based; settings: Homo sapiens, antiproliferative activity, 72 h
Procedure: Panc-1 cells are maintained in RPMI 1640 (Invitrogen 11875) media supplemented with 10% FBS, 1% Penicillin/Streptomycin and 1% Glutamax-1. Cells were plated in 96-well plates at 25×10^4 cells/ml. After 24 hours, compounds were added at 9, 3× dilutions in triplicate from 100 uM final concentration in the appropriate growth media. Plates were incubated for 72 hours at 37° C. in a 5% CO2/95% air humidified atmosphere after which time the media was removed and MTT was added in RPMI phenol red free media. The MTT was removed after 3 hours and formazan crystals were solubilized with 200 μL of isopropanol. Plates were read on a Molecular Devices SpectraMax i3 spectrophotometer at 570 nm for formazan and 690 nm for background subtraction. EC50 values were calculated by fitting the data in GraphPad Prism software.

MIA PaCa-2 cells = assay: Cell viability assay (MTT) in MIA PaCa-2 cells; assay type: cell-based; settings: Homo sapiens, antiproliferative activity, 72 h
Procedure: MIA PaCa-2 cells (CRL-1420, ATCC) were maintained in DMEM media supplemented with 10% FBS, 2.5% HS, 1% GlutaMAX, 1% sodium pyruvate, 100 U/mL penicillin, and 100 μg/mL streptomycin. Cell culture media and additives were purchased from Gibco. Cells were plated in 96-well plates at |1−2.5|×10^4 cells per well in the DMEM growth media. One microliter of a 2-fold serially diluted compound solution in DMSO (Sigma) starting at 20 mM (100 μM final concentration) was added to each well. The final volume in each well was 200 μL, yielding a final DMSO concentration of 0.5%. Control wells contained 0.5% DMSO (100% viability) or 25% DMSO (background) and all reactions were done in triplicate. The plate was incubated for 72 h at 37° C. in a 5% CO2/95% air humidified atmosphere.
Measurement of cell viability was carried out using a modified method of Mosmann based on 3-(4,5-dimethylthiazol-2-yl)-2,5-diphenyltetrazolium bromide (MTT, Sigma). MTT solution was prepared fresh at 1 mg/mL in serum-free and phenol red-free RPMI 1640 media. After 200 μL of MTT solution was added to each well, the plate was incubated as described above for 3 h. The MTT solution was removed, and the formazan crystals were solubilized with 200 μL of isopropanol. The plate was read on a SpectraMax i3 spectrophotometer (Molecular Devices) at 570 nm for formazan and 650 nm for background subtraction. EC50 values were calculated by fitting the data in GraphPad Prism software. EC50 values were determined in triplicate.

[1] = Microsomal stability assay, mouse liver microsomes; assay type: in vitro ADME; settings: pH 7.4; mouse liver microsomes 0.5 mg/mL, 1 mM NADPH, 1 μM compound; read-out: Microsomal Stability t1/2 Mouse
Procedure: (§1) The in vitro microsomal stability assay was conducted in triplicate in mouse and human liver microsomal systems. In a typical incubation, a compound (typically 1 μM final concentration) was spiked into the reaction mixture containing 0.5 mg/mL of liver microsomal protein and 1 mM of NADPH in 0.1 M potassium phosphate buffer (pH 7.4) at 37° C. At various time points, 1 volume of reaction aliquot was taken and quenched with 3 volumes of acetonitrile with an appropriate internal standard. The samples were then vortexed and centrifuged at 14,000 rpm for 5 min. The supernatants were collected and analyzed by LC-MS/MS to determine the in vitro metabolic half-life (t1/2) and intrinsic clearance (CLint). Verapamil was used as a positive control.
(§2) Quantification and analysis of compounds in biological samples were carried out on an AB Sciex QTrap 5500 mass spectrometer coupled with an Agilent 1260 Infinity HPLC. The chromatographic separation of compounds was achieved using a Phenomenex Kinetex C18 column (50×2.1 mm, 2.6 μm), and MS/MS analysis was conducted using an ESI ion source with MRM detection. The MS/MS detection parameters including declustering potential (DP), entrance potential (EP), collision energy (CE), and collision cell exit potential (CXP) were optimized for each compound.

[2] = Microsomal stability assay, human liver microsomes; assay type: in vitro ADME; settings: pH 7.4; human liver microsomes 0.5 mg/mL, 1 mM NADPH, 1 μM compound; read-out: Microsomal Stability t1/2 Human
Procedure: as §1, §2

[3] = Plasma stability assay, human plasma; assay type: in vitro ADME; settings: 37° C., 24 h
Procedure: (§3) The plasma stability assay was performed in triplicate by incubating a compound in normal mouse and human plasma at 37° C. At 0, 1, 3, 6, and 24 h, aliquots of the plasma mixture were taken and quenched with 3 volumes of acetonitrile containing an appropriate internal standard. The samples were then vortexed and centrifuged at 14,000 rpm for 5 min. The supernatants were collected and analyzed by LC-MS/MS to determine the remaining percentage at various time points.
as §2

[4] = Plasma stability assay, mouse plasma; assay type: in vitro ADME; settings: 37° C., 24 h
Procedure: as §3, §2

Row | Compound | EC50 (Panc-1 cells) | EC50 (MIA PaCa-2 cells) | half-life at 1 μM [1] | half-life at 1 μM [2] | Plasma Stability (% remaining, 6 h/24 h) Human [3] | Plasma Stability (% remaining, 6 h/24 h) Mouse [4]
1 | CNC(=O)c1cccc(Cn2nc(C)c(NC(=O)c3ccc(COc4cccc(C)c4)cc3)c2C)c1 [Compound D3b, 3-((3,5-Dimethyl-4-(4-((m-tolyloxy)methyl)benzamido)-1H-pyrazol-1-yl)methyl)-N-methylbenzamide] | 0.56 µM | 6.2 µM | – | – | – | –
2 | CNC(=O)c1cccc(Cn2nc(C)c(NC(=O)c3ccc(COc4ccc(C)cc4)cc3)c2C)c1 [Compound D3c, 3-((3,5-Dimethyl-4-(4-((p-tolyloxy)methyl)benzamido)-1H-pyrazol-1-yl)methyl)-N-methylbenzamide] | 13 µM | 2.6 µM | – | – | – | –
3 | CNC(=O)c1cccc(Cn2nc(C)c(NC(=O)c3ccc(COc4ccccc4OC)cc3)c2C)c1 [Compound D4a, 3-((4-(4-((2-Methoxyphenoxy)methyl)benzamido)-3,5-dimethyl-1H-pyrazol-1-yl)methyl)-N-methylbenzamide] | 25 µM | 8.5 µM | – | – | – | –
4 | CNC(=O)c1cccc(Cn2nc(C)c(NC(=O)c3ccc(COc4cccc(OC)c4)cc3)c2C)c1 [Compound D4b, 3-((4-(4-((3-Methoxyphenoxy)methyl)benzamido)-3,5-dimethyl-1H-pyrazol-1-yl)methyl)-N-methylbenzamide] | 6.2 µM | 6.2 µM | – | – | – | –
5 | CNC(=O)c1cccc(Cn2nc(C)c(NC(=O)c3ccc(COc4ccc(OC)cc4)cc3)c2C)c1 [Compound D4c, 3-((4-(4-((4-Methoxyphenoxy)methyl)benzamido)-3,5-dimethyl-1H-pyrazol-1-yl)methyl)-N-methylbenzamide] | 48 µM | 8 µM | – | – | – | –
6 | CNC(=O)c1cccc(Cn2nc(C)c(NC(=O)c3ccc(COc4ccccc4Cl)cc3)c2C)c1 [Compound D5a, 3-((4-(4-((2-Chlorophenoxy)methyl)benzamido)-3,5-dimethyl-1H-pyrazol-1-yl)methyl)-N-methylbenzamide] | 9.9 µM | 6.3 µM | – | – | – | –
7 | CNC(=O)c1cccc(Cn2nc(C)c(NC(=O)c3ccc(COc4cccc(Cl)c4)cc3)c2C)c1 [Compound D5b, 3-((4-(4-((3-Chlorophenoxy)methyl)benzamido)-3,5-dimethyl-1H-pyrazol-1-yl)methyl)-N-methylbenzamide] | 0.038 µM | 5.9 µM | – | – | – | –
8 | CNC(=O)c1cccc(Cn2nc(C)c(NC(=O)c3ccc(COc4ccc(Cl)cc4)cc3)c2C)c1 [Compound D5c, 3-((4-(4-((4-Chlorophenoxy)methyl)benzamido)-3,5-dimethyl-1H-pyrazol-1-yl)methyl)-N-methylbenzamide] | 2 µM | 4.2 µM | – | – | – | –
9 | CNC(=O)c1cccc(Cn2nc(C)c(NC(=O)c3ccc(COc4ccccc4F)cc3)c2C)c1 [Compound D6a, 3-((4-(4-((2-Fluorophenoxy)methyl)benzamido)-3,5-dimethyl-1H-pyrazol-1-yl)methyl)-N-methylbenzamide] | 3 µM | 5.6 µM | – | – | – | –
10 | CNC(=O)c1cccc(Cn2nc(C)c(NC(=O)c3ccc(COc4cccc(F)c4)cc3)c2C)c1 [Compound D6b, 3-((4-(4-((3-Fluorophenoxy)methyl)benzamido)-3,5-dimethyl-1H-pyrazol-1-yl)methyl)-N-methylbenzamide] | 0.21 µM | 7.7 µM | – | – | – | –
11 | CNC(=O)c1cccc(Cn2nc(C)c(NC(=O)c3ccc(COc4ccc(F)cc4)cc3)c2C)c1 [Compound D6c, 3-((4-(4-((4-Fluorophenoxy)methyl)benzamido)-3,5-dimethyl-1H-pyrazol-1-yl)methyl)-N-methylbenzamide] | 6.9 µM | 3.1 µM | – | – | – | –
12 | CNC(=O)c1cccc(Cn2nc(C)c(NC(=O)c3ccc(COc4ccccc4C#N)cc3)c2C)c1 [Compound D7a, 3-((4-(4-((2-Cyanophenoxy)methyl)benzamido)-3,5-dimethyl-1H-pyrazol-1-yl)methyl)-N-methylbenzamide] | 8.5 µM | 12 µM | – | – | – | –
13 | CNC(=O)c1cccc(Cn2nc(C)c(NC(=O)c3ccc(COc4ccc(C#N)cc4)cc3)c2C)c1 [Compound D7c, 3-((4-(4-((4-Cyanophenoxy)methyl)benzamido)-3,5-dimethyl-1H-pyrazol-1-yl)methyl)-N-methylbenzamide] | 22 µM | 5.6 µM | – | – | – | –
14 | CNC(=O)c1cccc(Cn2nc(C)c(NC(=O)c3ccc(COc4ccccc4C(F)(F)F)cc3)c2C)c1 [Compound D9a, 3-((3,5-Dimethyl-4-(4-((2-(trifluoromethyl)phenoxy)methyl)benzamido)-1H-pyrazol-1-yl)methyl)-N-methylbenzamide] | 0.44 µM | 10 µM | – | – | – | –
15 | CNC(=O)c1cccc(Cn2nc(C)c(NC(=O)c3ccc(COc4cccc(C(F)(F)F)c4)cc3)c2C)c1 [Compound D9b, 3-((3,5-Dimethyl-4-(4-((3-(trifluoromethyl)phenoxy)-methyl)benzamido)-1H-pyrazol-1-yl)methyl)-N-methylbenzamide] | 0.76 µM | 2.3 µM | – | – | – | –
16 | CNC(=O)c1cncc(Cn2nc(C)c(NC(=O)c3ccc(COc4ccc(C(F)(F)F)cc4)cc3)c2C)c1 [Compound E3a, 5-((3,5-Dimethyl-4-(4-((4-(trifluoromethyl)phenoxy)methyl)benzamido)-1H-pyrazol-1-yl)methyl)-N-methylnicotinamide] | – | 8.6 µM | 2.4 h | 1.37 h | —/94% | —/100%
17 | CNC(=O)c1cncc(Cn2nc(C)c(NC(=O)c3ccc(COc4ccc(C(F)(F)F)cc4C)cc3)c2C)c1 [Compound E3b, 5-((3,5-Dimethyl-4-(4-((2-methyl-4-(trifluoromethyl)phenoxy)methyl)benzamido)-1H-pyrazol-1-yl)methyl)-N-methylnicotinamide] | – | 7.6 µM | 2.32 h | 1.23 h | —/98% | —/100%
18 | CNC(=O)c1ccnc(Cn2nc(C)c(NC(=O)c3ccc(COc4ccc(C(F)(F)F)cc4)cc3)c2C)c1 [Compound E4a, 2-((3,5-Dimethyl-4-(4-((4-(trifluoromethyl)phenoxy)methyl)benzamido)-1H-pyrazol-1-yl)methyl)-N-methylisonicotinamide] | – | 13 µM | 2.52 h | 1.08 h | —/97% | —/98%
19 | CNC(=O)c1ccnc(Cn2nc(C)c(NC(=O)c3ccc(COc4ccc(C(F)(F)F)cc4C)cc3)c2C)c1 [Compound E4b, 2-((3,5-Dimethyl-4-(4-((2-methyl-4-(trifluoromethyl)phenoxy)methyl)benzamido)-1H-pyrazol-1-yl)methyl)-N-methylisonicotinamide] | – | 4.9 µM | 2.1 h | 0.95 h | —/98% | —/99%
